According to patent US9957271B2, “Substituted bicyclic aza-heterocycles and analogues as sirtuin modulators” (GlaxoSmithKline, LLC, priority 2012, dated 2018):

Assays:
[1] = biological target: T1, SIRT1 (Homo sapiens, UniProt Q96EB6); assay: TAMRA based mass spectrometry assay of SIRT1 activity; format: biochemical; settings: for Emax: read-out: TAMRA % Fold Act
T1 sequence (Q96EB6 1-747): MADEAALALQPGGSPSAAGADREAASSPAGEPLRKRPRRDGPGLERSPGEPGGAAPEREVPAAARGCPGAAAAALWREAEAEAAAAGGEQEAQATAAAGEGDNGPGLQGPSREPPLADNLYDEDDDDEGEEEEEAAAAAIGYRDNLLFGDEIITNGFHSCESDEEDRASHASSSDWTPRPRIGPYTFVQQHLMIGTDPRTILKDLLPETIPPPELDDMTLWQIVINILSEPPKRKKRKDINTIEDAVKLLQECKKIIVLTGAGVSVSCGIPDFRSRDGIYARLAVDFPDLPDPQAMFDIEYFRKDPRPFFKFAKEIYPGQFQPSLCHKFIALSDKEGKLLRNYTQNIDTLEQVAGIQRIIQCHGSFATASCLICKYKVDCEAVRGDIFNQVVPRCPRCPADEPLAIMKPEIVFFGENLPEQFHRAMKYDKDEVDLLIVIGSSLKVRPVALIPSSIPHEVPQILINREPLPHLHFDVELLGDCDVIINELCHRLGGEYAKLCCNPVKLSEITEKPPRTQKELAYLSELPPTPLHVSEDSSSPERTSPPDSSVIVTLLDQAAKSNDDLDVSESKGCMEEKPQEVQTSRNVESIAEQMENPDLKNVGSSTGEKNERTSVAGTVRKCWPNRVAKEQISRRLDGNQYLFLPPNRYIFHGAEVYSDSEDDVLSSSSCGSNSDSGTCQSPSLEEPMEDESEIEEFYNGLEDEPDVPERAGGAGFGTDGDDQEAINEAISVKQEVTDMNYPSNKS
Summary of the method: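 Recombinant N-terminal His-tagged human SIRT1 (10 nM, E. coli) incubated 25 min at 25 °C with 0.5 μM 5TMR-labelled p53-derived acetyl-peptide and 120 μM βNAD+ in Tris-acetate pH 8 buffer with DTT and 0.05% BSA, compound at varying concentrations. Stopped with formic acid; deacetylated peptide or OAADPR measured by mass spectrometry relative to DMSO controls.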

[2] = biological target: T1, SIRT1; assay: Trp mass spectrometry assay of SIRT1 activity; format: biochemical; settings: for Emax: read-out: Trp % Fold Act
Summary of the method: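 His-tagged SIRT1 expressed in E. coli BL21(DE3), 10 nM, incubated 25 min at 25° C. with 0.5 μM Ac-RHKK(Ac)W-NH2 peptide and 120 μM βNAD+ in 50 mM HEPES pH 7.5, […], 1 mM DTT, 0.05% BSA; formic acid stop. OAADPR or deacetylated peptide measured by mass spectrometry; EC1.5 and percent maximum activation versus DMSO control.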

[3] = TAMRA assay, concentration giving 150% activation of SIRT1
[4] = TAMRA assay, percent maximum fold activation
[5] = Trp assay, concentration giving 150% activation of SIRT1
[6] = Trp assay, percent maximum fold activation
[7] = concentration of test compound giving 150% activation of SIRT1, TAMRA peptide substrate
[8] = percent maximum fold activation of SIRT1, TAMRA peptide substrate
[9] = concentration of test compound giving 150% activation of SIRT1, Trp peptide substrate
[10] = percent maximum fold activation of SIRT1, Trp peptide substrate
[11] = TAMRA peptide substrate, concentration giving 150% activation of SIRT1
[12] = TAMRA peptide substrate, percent maximum fold activation
[13] = Trp peptide substrate, concentration giving 150% activation of SIRT1
[14] = Trp peptide substrate, percent maximum fold activation

Row | Structure (SMILES) | TAMRA EC1.5 (μM) [1, 3] | Emax [1, 4] | Trp EC1.5 (μM) [2, 5] | Emax [2, 6] | other results
1 | O=C(Nc1cnn2ccc(-c3ccccc3OC(F)(F)F)nc12)c1ncc(F)cc1F [Compound 755] | A (EC1.5<1 μM) | ≥ 350% | B (EC1.5 1-25 μM) | < 350% | –
2 | CN(C)CCn1cc(NC(=O)c2cnc3ccc(-c4ccccc4C(F)(F)F)nn23)cn1 [Compound 155] | – | – | – | – | TAMRA EC1.5 (μM) [1, 7]: B (EC1.5 1-25 μM); Emax [1, 8]: < 350%; Trp EC1.5 (μM) [2, 9]: C (EC1.5>25 μM); Emax [2, 10]: < 350%
3 | O=C(Nc1cnc2ccc(-c3ccccc3Cl)nn12)c1cscn1 [Compound 291] | B (EC1.5 1-25 μM) | ≥ 350% | C (EC1.5>25 μM) | < 350% | –
4 | COc1cccc(C(=O)Nc2cnn3ccc(-c4ccccc4C(F)(F)F)nc23)n1 [Compound 521] | – | – | – | – | TAMRA EC1.5 [1, 11]: A (EC1.5<1 μM); Emax [1, 12]: ≥ 350%; Trp EC1.5 [2, 13]: A (EC1.5<1 μM); Emax [2, 14]: < 350%
5 | Cc1nc2ccc(-c3cccc(OC[C@H](O)CO)c3)nn2c1C(=O)Nc1ccc(F)cn1 [Compound 821] | B (EC1.5 1-25 μM) | < 350% | A (EC1.5<1 μM) | < 350% | –
6 | Cc1cccc(-c2ccc3nc(C)c(C(=O)Nc4cccnn4)n3n2)c1 [Compound 766] | A (EC1.5<1 μM) | < 350% | A (EC1.5<1 μM) | < 350% | –
7 | COc1cccc(C(=O)Nc2c(C)nc3c(C)cc(-c4ccccc4C(F)(F)F)nn23)n1 [Compound 589, N-(2,8-dimethyl-6-(2-(trifluoromethyl)phenyl)imidazo[1,2-b]pyridazin-3-yl)-6-methoxypicolinamide] | – | – | – | – | TAMRA EC1.5 [1, 11]: B (EC1.5 1-25 μM); Emax [1, 12]: ≥ 350%; Trp EC1.5 [2, 13]: B (EC1.5 1-25 μM); Emax [2, 14]: < 350%
8 | Cc1nn2ccc(-c3ccccc3C(F)(F)F)nc2c1C(=O)Nc1ccc(F)cn1 [Compound 686] | A (EC1.5<1 μM) | ≥ 350% | A (EC1.5<1 μM) | < 350% | –
9 | CS(=O)(=O)c1ccccc1-c1ccc2ncc(C(=O)Nc3cccnc3)n2n1 [Compound 189] | – | – | – | – | TAMRA EC1.5 (μM) [1, 7]: C (EC1.5>25 μM); Emax [1, 8]: < 350%; Trp EC1.5 (μM) [2, 9]: C (EC1.5>25 μM); Emax [2, 10]: < 350%
10 | O=C(Nc1cnn2ccc(-c3ccccc3OC(F)(F)F)nc12)c1cscn1 [Compound 785] | B (EC1.5 1-25 μM) | ≥ 350% | C (EC1.5>25 μM) | < 350% | –
11 | Cc1nc2ccc(-c3ccccc3C(F)(F)F)nn2c1NC(=O)c1ccccn1 [Compound 375] | B (EC1.5 1-25 μM) | ≥ 350% | C (EC1.5>25 μM) | < 350% | –
12 | Cc1nc2c(C)cc(-c3ccccc3C(F)(F)F)nn2c1C(=O)Nc1ccnc(C(C)C)n1 [Compound 730] | A (EC1.5<1 μM) | ≥ 350% | A (EC1.5<1 μM) | ≥ 350% | –
13 | Cc1scnc1C(=O)Nc1cnn2ccc(-c3ccccc3C(F)(F)F)nc12 [Compound 803] | B (EC1.5 1-25 μM) | ≥ 350% | C (EC1.5>25 μM) | < 350% | –
14 | Cc1cccnc1C(=O)Nc1cnn2ccc(-c3ccccc3C(F)(F)F)nc12 [Compound 746] | A (EC1.5<1 μM) | ≥ 350% | C (EC1.5>25 μM) | < 350% | –
15 | O=C(Nc1ccnc(N2CCC2)c1)c1cnc2ccc(-c3c(F)cccc3F)nn12 [Compound 170] | – | – | – | – | TAMRA EC1.5 (μM) [1, 7]: A (EC1.5<1 μM); Emax [1, 8]: < 350%; Trp EC1.5 (μM) [2, 9]: B (EC1.5 1-25 μM); Emax [2, 10]: < 350%
16 | O=C(Nc1cnn2ccc(-c3ccccc3OC(F)(F)F)nc12)c1nc(C(F)(F)F)cs1 [Compound 770] | B (EC1.5 1-25 μM) | ≥ 350% | C (EC1.5>25 μM) | < 350% | –
17 | Cc1cc(C)nc(NC(=O)c2cnn3ccc(-c4ccccc4OC(F)(F)F)nc23)n1 [Compound 688] | B (EC1.5 1-25 μM) | ≥ 350% | B (EC1.5 1-25 μM) | < 350% | –
18 | Cc1cccc(C(=O)Nc2cnn3ccc(-c4ccccc4OC(F)(F)F)nc23)n1 [Compound 725] | A (EC1.5<1 μM) | ≥ 350% | B (EC1.5 1-25 μM) | < 350% | –
19 | O=C(Nc1cccc(N2CCOCC2)n1)c1cnc2ccc(-c3c(F)cccc3Cl)nn12 [Compound 164] | – | – | – | – | TAMRA EC1.5 (μM) [1, 7]: A (EC1.5<1 μM); Emax [1, 8]: ≥ 350%; Trp EC1.5 (μM) [2, 9]: B (EC1.5 1-25 μM); Emax [2, 10]: < 350%
20 | Cc1cnc(NC(=O)c2cnc3ccc(-c4cccc(C(F)(F)F)c4)nn23)s1 [Compound 17] | – | – | – | – | TAMRA EC1.5 (μM) [1, 7]: B (EC1.5 1-25 μM); Emax [1, 8]: < 350%; Trp EC1.5 (μM) [2, 9]: B (EC1.5 1-25 μM); Emax [2, 10]: < 350%
21 | O=C(Nc1ncccn1)c1cnc2ccc(-c3ccccc3C(F)(F)F)nn12 [Compound 84] | – | – | – | – | TAMRA EC1.5 (μM) [1, 7]: B (EC1.5 1-25 μM); Emax [1, 8]: ≥ 350%; Trp EC1.5 (μM) [2, 9]: B (EC1.5 1-25 μM); Emax [2, 10]: ≥ 350%
22 | CCn1nccc1NC(=O)c1c(C)nc2ccc(-c3ccccc3C(F)(F)F)nn12 [Compound 674] | B (EC1.5 1-25 μM) | < 350% | B (EC1.5 1-25 μM) | ≥ 350% | –
23 | Cc1cc(-c2ccccc2C(F)(F)F)nn2c(C(=O)Nc3ccc(F)cn3)cnc12 [Compound 542] | – | – | – | – | TAMRA EC1.5 [1, 11]: A (EC1.5<1 μM); Emax [1, 12]: ≥ 350%; Trp EC1.5 [2, 13]: B (EC1.5 1-25 μM); Emax [2, 14]: < 350%
24 | O=C(Nc1ccncc1)c1cnc2ccc(-c3cccc(Cl)c3F)nn12 [Compound 141] | – | – | – | – | TAMRA EC1.5 (μM) [1, 7]: C (EC1.5>25 μM); Emax [1, 8]: < 350%; Trp EC1.5 (μM) [2, 9]: C (EC1.5>25 μM); Emax [2, 10]: < 350%
25 | Cc1nn2ccc(-c3ccccc3C(F)(F)F)nc2c1C(=O)Nc1cccnn1 [Compound 695] | A (EC1.5<1 μM) | ≥ 350% | A (EC1.5<1 μM) | ≥ 350% | –
26 | Cc1ccc(NC(=O)c2cnn3ccc(-c4ccccc4OC(F)(F)F)nc23)cn1 [Compound 621] | A (EC1.5<1 μM) | ≥ 350% | A (EC1.5<1 μM) | ≥ 350% | –
27 | Cc1cc2ncc(C(=O)Nc3ccccn3)n2nc1-c1ccccc1C(F)(F)F [Compound 224] | B (EC1.5 1-25 μM) | ≥ 350% | B (EC1.5 1-25 μM) | ≥ 350% | –
